Test system: α7 integrin promoter
Test: muscle cell-based assay: α7βgal+/− myoblasts/myotubes, LacZ reporter, β-galactosidase cleavage of FDG
Set-up: species or system mouse; Results in α7+/− β-galactosidase assay: scale not given here
Settings: Myoblasts
How it was run: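 Primary α7βgal+/− mouse myoblasts (LacZ knocked into α7 integrin exon 1, promoter retained), differentiated; promoter activity read as β-galactosidase conversion of non-fluorescent FDG to fluorescein. Hits followed by dose-response, western analysis and myostatin counterscreen.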

Row | SMILES | Results in α7+/− β-galactosidase assay (0.5 uM) | Results in α7+/− β-galactosidase assay (1 uM) | Results in α7+/− β-galactosidase assay (5 uM) | Results in α7+/− β-galactosidase assay (10 uM) | Results in α7+/− β-galactosidase assay (20 uM) | Results in α7+/− β-galactosidase assay (40 uM)
1 | Cc1ccc2c(c1)/C(=C/c1ccccc1F)C(=O)N2 [drawing 667] | −0.02616 | 0.02782 | −0.04422 | −0.06595 | −0.1695 | −0.3533
2 | CC(=O)Nc1ccc(-n2c(C)nc(=O)c(-c3ccccc3)c2C)cc1 [drawing 668] | 0.06264 | −0.004 | −0.1843 | −0.1948 | −0.4829 | −0.7384
3 | CCc1nc2ccccc2c(C(=O)NCc2ccccc2)c1C [drawing 669] | 0.09233 | 0.1045 | 0.3581 | −0.08672 | 0.0466 | 0.1074
4 | CCOC(=O)c1cc(-c2cccs2)nc2c1c(C)nn2-c1ccccn1 [drawing 670] | 0.09738 | 0.1342 | −0.1204 | −0.2068 | −0.3072 | −0.5198
5 | CN1CCN(c2ccccc2/C=C2\C(=O)Nc3ccccc32)CC1 [drawing 671] | 0.1788 | 0.04505 | −0.08497 | −0.09387 | −0.1256 | −0.3824
6 | COC(=O)c1cc(S(=O)(=O)NCC2CCN(Cc3ccc(Cl)cc3)CC2)cn1C [drawing 672] | 0.2815 | 0.1861 | −0.03678 | −0.03865 | 0.1247 | 0.0618
7 | COc1ccc(C(=O)Cn2nnc(-c3ccccc3NC(=O)c3ccco3)n2)cc1 [drawing 673] | 0.4054 | 0.1958 | −0.2666 | −0.3483 | −0.6016 | −0.7762
8 | N#Cc1nc(COc2ccccc2)oc1N1CCCC1 [drawing 674] | 0.189 | 0.0825 | −0.1343 | −0.1744 | −0.09766 | −0.3419
9 | CCCc1nnc(SCC(=O)NC2CCCC2)n1CCOC [drawing 675] | 0.1622 | 0.07572 | −0.08939 | −0.107 | −0.1998 | −0.413
10 | Nc1cccc(/C=C/C(=O)O)c1 [drawing 676] | 0.1361 | 0.05647 | −0.05605 | 0.2478 | −0.08666 | −0.2769
11 | CCCC1C(c2cc(OC)c(OC)c(OC)c2)=Nc2c1c(=O)[nH]c(=O)n2Cc1ccccc1 (stereo not drawn) [drawing 677] | 0.221 | 0.193 | −0.1488 | 0.1807 | −0.03424 | −0.4586
12 | CC(C)(C)c1ccc(C(=O)OCC(=O)Nc2sc3c(c2C#N)CCC3)cc1 [drawing 678] | 0.2055 | 0.1005 | 0.3001 | −0.02658 | 0.3137 | 0.2257
13 | CCOc1cc(C)c(S(=O)(=O)N2CCCCC2)cc1C [drawing 679] | 0.1137 | 0.2418 | 0.02032 | −0.02723 | 0.1874 | 0.2404
14 | Cc1cc(OCC(=O)NC(C)C)ccc1Cl [drawing 680] | −0.00101 | 0.01964 | −0.2128 | −0.3742 | −0.5775 | −0.6915
15 | Cc1ccsc1CN(C)CC(=O)Cc1ccc([N+](=O)[O-])cc1Cl [drawing 681] | 0.233 | 0.3513 | −0.03377 | −0.09863 | −0.01304 | −0.0403
16 | O=C1c2ccccc2C(=O)C1(CC(O)O)c1ccccc1 [drawing 682] | 0.2496 | 0.3517 | −0.03545 | −0.1644 | −0.1709 | −0.2409
17 | Cc1ccc(Cn2nnc3c(O)nc(C4CCCN(C(=O)c5ccco5)C4)nc32)cc1 (stereo not drawn) [drawing 683] | 0.09519 | 0.1784 | −0.02152 | −0.00668 | −0.00332 | 0.06402
18 | Cc1ccc(NS(=O)(=O)c2ccc(-c3ccc(O)nn3)o2)c(C)c1 [drawing 685] | 0.09197 | 0.1114 | −0.00204 | −0.06144 | 0.2389 | 0.2674
19 | CCCCN1CC(=O)N2Cc3[nH]c4ccccc4c3C[C@H]2C1=O [drawing 686] | 0.1518 | 0.2222 | −0.00341 | −0.04523 | 0.1761 | 0.2299
20 | CCC(CC)C(=O)Nc1c(C(=O)N2CCN(c3ccccc3)CC2)oc2ccccc12 [drawing 687] | 0.02952 | 0.08671 | 0.02479 | −0.0251 | 0.2442 | 0.3404
21 | Cc1nc(/C=C2\C(=O)Nc3ccccc32)c[nH]1 [drawing 688] | 0.0102 | 0.003171 | 0.1245 | −0.03494 | 0.1171 | 0.02067
22 | O=C(NCCc1ccc(Cl)cc1)C1CCCO1 (stereo not drawn) [drawing 689] | 0.03412 | 0.00045 | 0.2918 | 0.03423 | 0.08798 | 0.003802
23 | CCNC(=O)C(=O)Nc1cc2c3c(c1)CCN3C(=O)CC2 [drawing 690] | 0.05836 | 0.1657 | 0.2771 | 0.06388 | 0.05069 | 0.005609
24 | Cc1cccc(NCC(=O)N/N=C/c2ccccn2)c1 [drawing 691] | 0.1681 | 0.3046 | 0.3928 | 0.1778 | −0.1319 | −0.4037
25 | COc1ccc(CN2CCNC(=O)C2CC(=O)NCCc2c[nH]c3ccccc23)c(OC)c1 (stereo not drawn) [drawing 692] | 0.0135 | 0.04793 | 0.2102 | −0.04499 | −0.02608 | −0.01274
26 | O=c1c2cc(-c3ccccc3)sc2nc2n1N=C(c1ccccc1)CS2 [drawing 693] | −0.04703 | −0.001 | 0.1857 | 0.01009 | 0.0113 | 0.00476
27 | Nc1ncnc(NCc2ccccc2)c1[N+](=O)[O-] [drawing 694] | 0.01911 | 0.00831 | 0.2463 | −0.04019 | −0.00635 | 0.02312
28 | O=CN1CCN(C(=O)CC(c2ccccc2)c2cc(Br)ccc2O)CC1 (stereo not drawn) [drawing 695] | 0.1751 | 0.03283 | 0.07723 | −0.1323 | 0.00725 | −0.04551

Reference: patent US10028992B2, “Methods of treating muscular dystrophy” (BOARD OF REGENTS OF THE NEVADA SYSTEM OF HIGHER EDUCATION …, priority 2012, dated 2018)
